# Data taken from patent publication US11896035B2, “Chemical mitigants in animal feed and feed ingredients” (priority 2014, dated 2024).
# Test system: PEDv
# Assay: PEDv RT-PCR (Ct) in chemically treated, then inoculated feed matrices
# Set-up: species or system Porcine Epidemic Diarrhea virus
# Settings: room temperature; for Spray Dried Plasma Average CT Count: spray dried animal plasma
# Experimental: In a third study, experiments were conducted to evaluate the effectiveness of various chemical mitigation strategies on post-processing contamination of PEDv in feed and feed components. Treatments were arranged in a 7×4 factorial with 6 chemical treatments plus a control, and 4 feed matrices. […] The 4 feed matrices included: 1) complete swine diet (complete nursery diet), 2) blood meal, 3) porcine meat and bone meal (MBM), and 4) spray-dried animal plasma. The 4 feed treatments×6 chemical treatments (plus 1 control) equaled 28-1 kg batches. The feed matrices were chemically treated first and then inoculated to represent post-processing contamination. […] There were 3 segregated replicates of each batch for each day of analysis. All samples were stored at room temperature. Untreated control supernant from each of the 4 feed matrixes on day 0 was harvested and aliquots frozen and used as controls for subsequent analysis days Each day these samples were used as laboratory controls to evaluate inter assay variation.
# Samples were analyzed for PEDv by RT-PCR. Analyzed values represent cycle time or cycle threshold (Ct.) before detection, Lower Ct values indicate greater nucleic acid presence, but not necessarily infectivity. Data were analyzed using the GLIMMIX procedure of SAS with fixed effects of chemical treatment, matrix, and time, as well as all interactions.
compound,measurement,setting,value
"[Na+].[O-][Cl+2]([O-])[O-] [Sodium chlorate, sodium chlorate]",Porcine Blood Meal Average Ct Count,day 0,29
same,Porcine Blood Meal Average Ct Count,day 1,29
same,Porcine Blood Meal Average Ct Count,day 3,31
same,Porcine Blood Meal Average Ct Count,day 7,32
same,Porcine Blood Meal Average Ct Count,day 14,33
same,Porcine Blood Meal Average Ct Count,day 21,36
same,Porcine Blood Meal Average Ct Count,day 42,36
same,Porcine Meat and Bone Meal Average CT Count,day 0,26
same,Porcine Meat and Bone Meal Average CT Count,day 1,25
same,Porcine Meat and Bone Meal Average CT Count,day 3,27
same,Porcine Meat and Bone Meal Average CT Count,day 7,27
same,Porcine Meat and Bone Meal Average CT Count,day 14,28
same,Porcine Meat and Bone Meal Average CT Count,day 21,27
same,Porcine Meat and Bone Meal Average CT Count,day 42,29
same,Spray Dried Plasma Average CT Count,day 0,28
same,Spray Dried Plasma Average CT Count,day 1,26
same,Spray Dried Plasma Average CT Count,day 3,28
same,Spray Dried Plasma Average CT Count,day 7,28
same,Spray Dried Plasma Average CT Count,day 14,28
same,Spray Dried Plasma Average CT Count,day 21,29
same,Spray Dried Plasma Average CT Count,day 42,28
same,Swine Diet Average Ct Count,day 0,28
same,Swine Diet Average Ct Count,day 1,28
same,Swine Diet Average Ct Count,day 3,29
same,Swine Diet Average Ct Count,day 7,30
same,Swine Diet Average Ct Count,day 14,29
same,Swine Diet Average Ct Count,day 21,32
same,Swine Diet Average Ct Count,day 42,32
